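Step 1: Grow cells in 96-well plates. Step 2: Expose to compound for 48 hours at 5 concentrations. Step 3: Interpolate endpoints linearly; if unreached, use highest concentration. GI50 is the concentration that inhibits growth by half. The concentration for full growth arrest is given as TGI.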 Where a SMILES comes first, the peptide text is derived from it. [ ]: non-standard residue; d: D form.
Key:
Assay in all cases: NCI-60 cell line screen, 48 h
RXF 393 renal = test system: RXF 393 renal
HL-60(TB) leukemia = test system: HL-60(TB) leukemia
786-0 renal = test system: 786-0 renal
M14 melanoma = test system: M14 melanoma
SNB-19 CNS = test system: SNB-19 CNS
MCF7 breast = test system: MCF7 breast
U251 CNS = test system: U251 CNS
CCRF-CEM leukemia = test system: CCRF-CEM leukemia
SK-OV-3 ovarian = test system: SK-OV-3 ovarian
IGROV1 ovarian = test system: IGROV1 ovarian

| Compound | TGI (RXF 393 renal) [µM] | TGI (HL-60(TB) leukemia) [µM] | TGI (786-0 renal) [µM] | TGI (M14 melanoma) [µM] | TGI (SNB-19 CNS) [µM] | TGI (MCF7 breast) [µM] | TGI (U251 CNS) [µM] | TGI (CCRF-CEM leukemia) [µM] | TGI (SK-OV-3 ovarian) [µM] | TGI (IGROV1 ovarian) [µM] | GI50 (CCRF-CEM leukemia) [µM] |
| --- | --- | --- | --- | --- | --- | --- | --- | --- | --- | --- | --- |
| C[Si](C)(C)OC1(C#N)c2ccccc2CCCC12CCCC2 (stereo not given) | 88.1 | 39.2 | > 100 | > 100 | > 100 | > 100 | 92.2 | 46 | > 100 | > 100 | – |
| c1ccc2c(c1)nnn2C1CCCCO1 (stereo not given) | > 100 | > 100 | > 100 | > 100 | > 100 | > 100 | > 100 | > 100 | > 100 | > 100 | – |
| CC(C)C[C@H](NC(=O)[C@H](CC(C)C)NC(=O)[C@@H](Cc1c[nH]c2ccccc12)NC(=O)[C@H](Cc1ccccc1)NC(=O)[C@@H](Cc1c[nH]c2ccccc12)NC(=O)[C@H](CCC(N)=O)NC(=O)[C@@H](CCC(N)=O)NC(=O)[C@@H]1CCCN1C(=O)[C@@H](CCCCN)NC(=O)[C@H]1CCCN1C(=O)[C@H](N)CCCN=C(N)N)C(N)=O (H-[dR][dP][dK]P[dQ]Q[dW]F[dW]LL-NH2) | > 100 | > 100 | – | – | > 100 | > 100 | > 93.2 | > 100 | > 100 | > 100 | – |
| CC1(C)CCC2=C(O1)c1ccccc1C(=Nc1ccc([N+](=O)[O-])cc1)C2=O | 32.7 | > 100 | 34.1 | 20.5 | 32.5 | 27.7 | 28.9 | 46.7 | 34.8 | > 100 | 19.6 |
| COC(=O)/C1=C/C=C\C[C@@]2(C)CC(c3ccoc3)OC(=O)[C@@H]2CC[C@H]1C (stereo not given in full) | > 25 | > 25 | > 25 | > 25 | > 25 | > 25 | > 25 | > 25 | > 25 | > 25 | – |
| O=S(=O)(O)c1cc(S(=O)(=O)O)c2cc(N=Nc3ccc(N=Nc4ccc(/C=C/c5ccc(N=[N+]([O-])c6ccc(/C=C/c7ccc(N=Nc8ccc(N=Nc9ccc%10cc(S(=O)(=O)O)cc(S(=O)(=O)O)c%10c9)cc8)cc7S(=O)(=O)O)c(S(=O)(=O)O)c6)cc5S(=O)(=O)O)c(S(=O)(=O)O)c4)cc3)ccc2c1 | > 78.7 | > 100 | – | – | > 100 | > 100 | > 100 | > 100 | > 100 | > 100 | – |
| N=C1C=CC(=C(c2ccc(N)cc2)c2ccc(N)cc2)C=C1 | 23 | 36.1 | 12.9 | 15.8 | 18.6 | 13.2 | 22.6 | 19.5 | 36.2 | 31.5 | – |
| NC(=Nc1ccccc1)N/N=C/c1c[nH]c2ccccc12 | 0.701 | 4.54 | 7.68 | 1.53 | 14.8 | 15 | 2.61 | 41 | 4.14 | 32.7 | – |
| COc1cc(C2c3cccc4cccc(c34)C3CCC(=O)N32)cc(OC)c1O (stereo not given) | > 50 | > 50 | > 50 | > 50 | > 50 | > 50 | > 50 | > 50 | > 50 | > 50 | – |
| C1=CC2C(C3CN(c4ccccc4)N=C13)C1C3C4C=CC21C=CC43 (stereo not given) | > 100 | > 100 | > 100 | > 100 | > 100 | > 100 | > 100 | > 100 | > 100 | > 100 | – |
| O=c1oc2ccccc2c(O)c1C(c1ccc(OCc2ccccc2)cc1)c1c(O)c2ccccc2oc1=O | > 100 | 65.9 | > 100 | > 100 | > 100 | > 100 | > 100 | > 100 | > 100 | > 100 | – |
| COC(=O)C1=C(C)NC(C)=C(C(=O)OC)C1c1cccc(/[N+]([O-])=C/c2ccccc2)c1 | 30.3 | 71 | 31.5 | 35 | > 100 | 34.3 | > 100 | 44.8 | > 100 | > 100 | – |
| Clc1nc2nc(N3CCNCC3)nc(N3CCCC3)c2[nH]1 | 27.9 | 42.8 | 32.1 | 34.6 | 31.8 | 32.2 | 31.8 | 41 | 37.2 | 32.7 | – |
| CCC[N+](C)(C)CCCNC(=O)c1c(O)c2ccccc2[nH]c1=O | > 100 | > 100 | > 100 | – | – | > 100 | > 100 | > 100 | > 100 | > 100 | – |
| C=C1c2c(n(S(=O)(=O)c3ccccc3)c3ccccc23)[C@@]2(C(=O)OC)CC3C=CC2N1C3 | > 100 | > 100 | > 100 | > 100 | > 100 | > 100 | > 100 | > 100 | > 100 | > 100 | – |

Reference: PubChem BioAssay (NCI)
